Reference: patent publication US12723023B2, “Ionizable cationic lipids for RNA delivery” (Arcturus Therapeutics, Inc., priority 2021, dated 2026)

Experiments:
[1] = In vivo biodegradability assay (lipid concentration in mouse liver by LC-MS); parameters: species or system mice; details: BLOQ: below level of quantification; for In vivo degradability (ng tissue) at 48 h 0.1 mpk: Table 1, 0.1 mpk; for In vivo degradability (ng/tissue) at 48 h 0.1 mpk: Table 2, 0.1 mpk
Protocol: In vivo biodegradability assay was performed to assess the biodegradability of lipids in the LNP. Briefly, mice were injected with either 0.1 or 0.03 mg/Kg dose and after 24 or 48 hours mice livers were collected. To measure the concentration of lipids in the mouse liver, liver samples were homogenized in appropriate buffer in 1-10 dilution and mixed with the same amount of stabilized plasma. The samples were then mixed with organic solvents spiked with internal standard to precipitate proteins. After centrifugation, supernatant was diluted further with organic solvent before sample analysis by LC-MS. In LC-MS analysis, positive electrospray ionization was used, and multiple reaction monitoring (MRM) parameters were set up to specifically target the lipid analyte and internal standard. Calibration standards were prepared in stabilized plasma and mixed with same amount of homogenization buffer before protein precipitation. Quality control samples with known amounts of lipid was prepared in blank liver homogenate to monitor the precision and accuracy of the assay.

[2] = Mouse plasma stability; assay type: in vitro ADME, CD-1 mouse; details: 1 μM lipid
Protocol: Lipid stock solution was prepared by dissolution of the lipid in isopropanol at the concentration of 5 mg/mL. A requisite volume of the lipid-isopropanol solution was then diluted to 100 μM concentration at a total volume of 1.0 mL with in 50:50 (v/v) ethanol/water. Ten microliters of this 100 μM solution was spiked into 1.0 mL of mouse plasma (BioIVT, Cat. No.: MSE00PLNHUNN, CD-1 mouse, anticoagulant: sodium heparin, not filtered) that was pre-warmed to 37° C. and was stirred at 50 rpm with a magnetic stir bar. The starting concentration of lipids in plasma was thus 1 μM. At time points 0, 15, 30, 45, 60 and 120 min, 0.1 mL of the plasma was withdrawn from the reaction mixture and the protein was precipitated by adding 0.9 mL of ice-cold 4:1 (v/v) acetonitrile/methanol with 1 μg/mL of a selected internal standard lipid added. After filtration through a 0.45 micron 96-well filtering plate, the filtrates were analyzed by LC-MS (Thermo Fisher's Vanquish UHPLC-LTQ XL linear ion trap Mass Spectrometer); Waters XBridge BEH Shield RP18 2.5 micron (2.1×100 mm) column with its matching guard column. Mobile phase A was 0.1% formic acid in water, and mobile phase B was 0.1% formic acid in 1:1 (v/v) acetonitrile/methanol. Flow rate was 0.5 ml/min. Elution gradient was: Time 0-1 min: 10% B; 1-6 min: 10%-95% B; 6-8.5 min: 95% B; 8.5-9 min: 95%-10% B; 9-10 min: 10% B. Mass spectrometry was in positive scanning mode from 600-1100 m/z. The peak of the molecular ion of the lipids was integrated in the extracted ion chromatography (XIC) using Xcalibur software (Thermo Fisher). The relative peak area compared to T=0, after normalization by the peak area of the internal standard, was used as the percentage of the lipid remaining at each time point. T1/2 values were calculated using the first-order decay model.

[3] = tested on: hEPO; assay: hEPO mRNA expression evaluation (hEPO-LNPs, serum hEPO by ELISA); assay type: in vivo, Balb/c mice; details: serum after 6 hr; for EPO exprssn (ng/mL) 0.03 mpk: 0.03 mpk hEPO-LNP intravenously; for EPO exprssn (ng/mL) 0.1 mpk: 0.1 mpk hEPO-LNP intravenously
Protocol: Lipid formulations comprising a hEPO mRNA below were evaluated for their ability to express hEPO in vivo according to the protocol of this example. All animal experiments were conducted using institutionally-approved protocols (IACUC). In this protocol, female Balb/c mice at least 6-8 weeks of age were purchased from Charles River Laboratory. The mice were intravenously injected with hEPO-LNPs via the tail vein with one of two dose levels of hEPO (0.1 and 0.03 mg/kg). After 6 hr, blood was collected with serum separation tubes, and the serum was isolated by centrifugation. Serum hEPO levels were then measured using an ELISA assay (Human Erythropoietin Quantikine IVD ELISA Kit, R&D Systems, Minneapolis, MD).

## CCC1CCC(C(=O)OCC(COC(=O)C2CCC(CC)CC2)OC(=O)CCCN(CCCC(=O)OC(COC(=O)C2CCC(CC)CC2)COC(=O)C2CCC(CC)CC2)C(=O)SCCCN(C)C)CC1 (centres unmarked) [LIPID 16, ((4,4′-((((3-(Dimethylamino)propyl)thio)carbonyl)azanediyl)bis(butanoyl))bis(oxy))bis(propane-2,1,3-triyl) tetrakis(4-ethylcyclohexane-1-carboxylate)]
[1]; Table 1, 0.03 mpk
  In vivo degradability (ng/tissue) at 48 h 0.03 mpk: <340 ng/tissue
[1]
  In vivo degradability (ng tissue) at 48 h 0.1 mpk: <340 ng tissue
  In vivo degradability (ng/tissue) at 48 h 0.1 mpk: <340 ng/tissue
[1]; Table 2, 0.03 mpk
  In vivo degradability (ng/tissue) at 48 h 0.03 mpk: <340 ng/tissue
[2]; Table 1, 37° C.
  Plasma half life % remaining after 2 h: 40%
[2]; Table 2, 37° C.
  Plasma half life % remaining after 2 h: 40%
[3]; Table 1
  EPO exprssn (ng/mL) 0.03 mpk: 2088 ng/mL
  EPO exprssn (ng/mL) 0.1 mpk: 6358 ng/mL
[3]; Table 2
  EPO exprssn (ng/mL) 0.1 mpk: 2088 ng/mL

## CC(CC1CCCCC1)C(=O)OCC(COC(=O)C(C)CC1CCCCC1)OC(=O)CCCN(CCCC(=O)OC(COC(=O)C(C)CC1CCCCC1)COC(=O)C(C)CC1CCCCC1)C(=O)SCCCN(C)C (centres unmarked) [LIPID 17, ((4,4′-((((3-(Dimethylamino)propyl)thio)carbonyl)-azanediyl)bis(butanoyl))bis(oxy))bis(propane-2,1,3-triyl) tetrakis(3-cyclohexyl-2-methylpropanoate)]
[1]; Table 1, 0.03 mpk
  In vivo degradability (ng/tissue) at 48 h 0.03 mpk: BLOQ
[1]
  In vivo degradability (ng tissue) at 48 h 0.1 mpk: BLOQ
  In vivo degradability (ng/tissue) at 48 h 0.1 mpk: BLOQ
[1]; Table 2, 0.03 mpk
  In vivo degradability (ng/tissue) at 48 h 0.03 mpk: BLOQ
[2]; Table 2, 37° C.
  Plasma half life % remaining after 2 h: 100%
[3]; Table 1
  EPO exprssn (ng/mL) 0.03 mpk: 1082 ng/mL
  EPO exprssn (ng/mL) 0.1 mpk: 1555 ng/mL
[3]; Table 2
  EPO exprssn (ng/mL) 0.1 mpk: 1082 ng/mL

## CCC1CCC(C(=O)OCC(C)(COC(=O)CCN(CCC(=O)OCC(C)(COC(=O)C2CCC(CC)CC2)COC(=O)C2CCC(CC)CC2)C(=O)SCCCN(C)C)COC(=O)C2CCC(CC)CC2)CC1 (centres unmarked) [LIPID 22, ((3,3′-((((3-(Dimethylamino)propyl)thio)carbonyl)azanediyl)bis(propanoyl))bis(oxy))bis(methylene)bis(2-methylpropane-2,1,3-triyl) tetrakis(2-(4-ethylcyclohexyl)acetate)]
[1]; Table 2, 0.03 mpk
  In vivo degradability (ng/tissue) at 48 h 0.03 mpk: <340 ng/tissue
[1]
  In vivo degradability (ng/tissue) at 48 h 0.1 mpk: <340 ng/tissue
[2]; Table 2, 37° C.
  Plasma half life % remaining after 2 h: 100%

## CCCCC(C)(C)CC(=O)OCC(C)(COC(=O)CCN(CCC(=O)OCC(C)(COC(=O)CC(C)(C)CCCC)COC(=O)CC(C)(C)CCCC)C(=O)SCCCN(C)C)COC(=O)CC(C)(C)CCCC [LIPID 23]
[1]; Table 2, 0.03 mpk
  In vivo degradability (ng/tissue) at 48 h 0.03 mpk: <340 ng/tissue
[1]
  In vivo degradability (ng/tissue) at 48 h 0.1 mpk: <340 ng/tissue
[2]; Table 2, 37° C.
  Plasma half life % remaining after 2 h: 100%

## CCCCCCCC(=O)OCC(C)(COC(=O)CCCCCCC)COC(=O)CCN(CCC(=O)OCC(C)(COC(=O)CCCCCCC)COC(=O)CCCCCCC)C(=O)SCCCN(C)C [LIPID 24]
[1]; Table 2, 0.03 mpk
  In vivo degradability (ng/tissue) at 48 h 0.03 mpk: BLOQ
[1]
  In vivo degradability (ng/tissue) at 48 h 0.1 mpk: BLOQ
[2]; Table 2, 37° C.
  Plasma half life % remaining after 2 h: 100%

## CCCCCCCCC(=O)OCC(COC(=O)CCCCCCCC)COC(=O)CCCN(CCCC(=O)OCC(COC(=O)CCCCCCCC)COC(=O)CCCCCCCC)C(=O)SCCCN(C)C [LIPID 25, ((4,4′-((((3-(Dimethylamino)propyl)thio)carbonyl)azanediyl)bis(butanoyl))bis(oxy))bis(methylene))bis(propane-2,1,3-triyl) tetranonanoate]
[1]; Table 2, 0.03 mpk
  In vivo degradability (ng/tissue) at 48 h 0.03 mpk: BLOQ
[1]
  In vivo degradability (ng/tissue) at 48 h 0.1 mpk: BLOQ
[2]; Table 2, 37° C.
  Plasma half life % remaining after 2 h: 100%

## CCCCCCCCC(=O)OCC(COC(=O)CCCCCCCC)COC(=O)CCN(CCC(=O)OCC(COC(=O)CCCCCCCC)COC(=O)CCCCCCCC)C(=O)SCCN(C)C [LIPID 26, ((3,3′-((((2-(Dimethylamino)ethyl)thio)carbonyl)azanediyl)bis(propanoyl))bis(oxy))bis(methylene))bis(propane-2,1,3-triyl) tetranonanoate]
[1]; Table 2, 0.03 mpk
  In vivo degradability (ng/tissue) at 48 h 0.03 mpk: BLOQ
[1]
  In vivo degradability (ng/tissue) at 48 h 0.1 mpk: BLOQ
[2]; Table 2, 37° C.
  Plasma half life % remaining after 2 h: 100%

## CC1CCC(CCC(=O)OCC(COC(=O)CCC2CCC(C)CC2)COC(=O)CCN(CCC(=O)OCC(COC(=O)CCC2CCC(C)CC2)COC(=O)CCC2CCC(C)CC2)C(=O)SCCCN(C)C)CC1 (centres unmarked) [LIPID 27]
[1]; Table 2, 0.03 mpk
  In vivo degradability (ng/tissue) at 48 h 0.03 mpk: BLOQ
[1]
  In vivo degradability (ng/tissue) at 48 h 0.1 mpk: BLOQ
[2]; Table 2, 37° C.
  Plasma half life % remaining after 2 h: 100%

## CN(C)CCCSC(=O)N(CCCC(=O)OC(COC(=O)C1CC2CCCCC2C1)COC(=O)C1CC2CCCCC2C1)CCCC(=O)OC(COC(=O)C1CC2CCCCC2C1)COC(=O)C1CC2CCCCC2C1 (centres unmarked) [LIPID 28]
[1]; Table 2, 0.03 mpk
  In vivo degradability (ng/tissue) at 48 h 0.03 mpk: BLOQ
[1]
  In vivo degradability (ng/tissue) at 48 h 0.1 mpk: BLOQ
[2]; Table 2, 37° C.
  Plasma half life % remaining after 2 h: 100%

## CN(C)CCCSC(=O)N(CCCC(=O)OC(COC(=O)C1CCC2CCCC2C1)COC(=O)C1CCC2CCCC2C1)CCCC(=O)OC(COC(=O)C1CCC2CCCC2C1)COC(=O)C1CCC2CCCC2C1 (centres unmarked) [LIPID 30, ((4,4′-((((3-(dimethylamino)propyl)thio)carbonyl)azanediyl)bis(butanoyl))bis(oxy))bis(propane-2,1,3-triyl) tetrakis(octahydro-1H-indene-5-carboxylate)]
[1]; Table 2, 0.03 mpk
  In vivo degradability (ng/tissue) at 48 h 0.03 mpk: BLOQ
[1]
  In vivo degradability (ng/tissue) at 48 h 0.1 mpk: BLOQ
[2]; Table 2, 37° C.
  Plasma half life % remaining after 2 h: 100%
